# Several values for one entry are separate records, joined by “and”; a condition that tells them apart may be missing. Identical values can stand only once.
# Test system: 292921-168-R-J2-PDC complex spheroid growth
# Experiment: Anticancer human tumor 292921-168-R-J2-PDC patient-derived pancreatic carcinoma cell line growth inhibition [AhR]
# Settings: for viability, T/C: stronger effect = lower value
# Source text: Multicellular complex tumor spheroid response to aryl hydrocarbon receptor antagonists in combination with a variety of drugs and investigational agents in selected tumor cell lines
# The current study was undertaken to assess response to aryl hydrocarbon receptor antagonists in combination with standard-of-care drugs and investigational agents in solid tumor complex spheroid models. Complex spheroids include a stromal component modeled by human endothelial cells (HUVEC) and fibroblasts modeled by human mesenchymal stem cells (MSCs). The concentration ranges selected for each drug and investigational agent were based upon clinically achievable concentrations if the clinical Cmax of the agent was known.
# Compounds. The drugs and investigational agents: BAY 2416964 (NSC825713), GNF351 (NSC835774), CH-223191 (NSC835775), CPI-455 (NSC825282), aza-TdCyd (NSC777586), decitabine (NSC127716), belinostat (NSC758774), entinostat (NSC756642), pevonedistat (NSC761192), tazemetostat (NSC777109), talazoparib (NSC765396), olaparib (NSC753686), selinexor (NSC780203), nedisertib (M3814, NSC802822), bortezomib (NSC756655), venetoclax (NSC766270), doxorubicin (NSC123127), elimusertib (BAY189344, NSC800525), ceralasertib (AZD6738, NSC777638), TAK-243 (NSC785004), alisertib (NSC759677), etoposide (NSC141540), topotecan (NSC609699), eribulin (NSC707389), gemcitabine (NSC613327), carboplatin (NSC241240), cisplatin (NSC119875), and SN-38 (NSC673596) were obtained from the National Cancer Institute (NCI) Developmental Therapeutics Program Chemical Repository (32). The FDA-approved anticancer drug set is available from the Developmental Therapeutics Program at https://dtp.cancer.gov/organization/dscb/obtaining/available plates.htm. […] The stock solutions were prepared in dimethyl sulfoxide (DMSO, Sigma-Aldrich, St. Louis, MO, cat. D2650), except for the platinum compounds which were prepared in saline (Quality Biological, Gaithersburg, MD, cat. 114-055-101), at 800-fold the tested concentration and stored at -70 degrees C prior to their use. All drugs and investigational agents were tested over a range starting from a high concentration at or near the clinical Cmax and decreasing in half-log increments. If the clinical Cmax for an agent had not been determined, the highest concentration tested was 10 microM (Table 1).
# Cell Culture. All cells were maintained in an incubator at 37 degrees C and 5% CO2 with 95% humidity. The PDC lines were cultured according to standard operating procedures established by the NCI PDMR (https://pdmr.cancer.gov). Briefly, all PDCs were thawed and cultured in Matrigel-coated flasks prepared with a working solution of 1X Ham's F-12 nutrient mix, without supplementation (Invitrogen, Waltham, MA, cat. 11765054), 100 U/mL penicillin-streptomycin (Invitrogen, cat. 15140122), and 2.5% Matrigel (Corning Inc., Corning, NY, cat. 354248) for the first three passages. All PDCs were cultured in complete DMEM/F-12 media containing advanced DMEM/F-12 (Invitrogen, cat. 12634028), 4.9% defined fetal bovine serum, heat inactivated (HyClone Laboratories Inc., Logan, UT, cat. SH30070.03HI), 389 ng/mL hydrocortisone (Sigma-Aldrich, cat. H4001), 9.7 ng/mL human EGF recombinant protein (Invitrogen, cat. PHG0313), 23.4 microg/mL adenine (Sigma-Aldrich, cat. A2786), 97.3 U/mL penicillin-streptomycin (Invitrogen, cat. 15140122), 1.9 mM L-glutamine (Invitrogen, cat. 25030081), and 9.7 microM Y-27632 dihydrochloride (Tocris Bioscience, Bristol, United Kingdom, cat. 1254). The PDCs were cultured in complete DMEM/F12 media without 10 microM Y-27632 dihydrochloride for at least two passages prior to the screen. The established cell lines NCI-H1341 and […] were cultured in DMEM/F-12, HEPES (Invitrogen, cat. 11330032), 5% defined fetal bovine serum (HyClone Laboratories Inc., cat. SH30070.03), ITS premix universal culture supplement [insulin (5 microg/mL), transferrin (5 microg/mL), and selenious acid (5 ng/mL)] […]
# [1] = curve of first compound, second compound 0.1 µM
# [2] = curve of first compound, second compound 0.316 µM
# [3] = curve of first compound, second compound 1 µM
# [4] = curve of first compound, second compound 3.16 µM
# [5] = curve of first compound, second compound 10 µM
# 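Note: spheroids exposed to compounds for seven days after three days of growth.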
structure (smiles),measurement,setting,value
CCN(c1cc(-c2ccc(CN3CCOCC3)cc2)cc(C(=O)NCc2c(C)cc(C)[nH]c2=O)c1C)C1CCOCC1 + Cc1ccccc1N=Nc1ccc(NC(=O)c2ccnn2C)c(C)c1,IC50,[1],> 3 µM
same,IC50,[2],> 3 µM
same,IC50,[3],> 3 µM
same,IC50,[4],> 3 µM
same,IC50,[5],1.43 µM
same,"viability, T/C","second compound 0.1 µM, first compound 0.00949 µM",98.1%
same,"viability, T/C","second compound 0.1 µM, first compound 0.03 µM",90.7%
same,"viability, T/C","second compound 0.1 µM, first compound 0.0949 µM",96.7%
same,"viability, T/C","second compound 0.1 µM, first compound 0.3 µM",89.5%
same,"viability, T/C","second compound 0.1 µM, first compound 0.949 µM",86%
same,"viability, T/C","second compound 0.1 µM, first compound 3 µM",80.5%
same,"viability, T/C","second compound 0.316 µM, first compound 0.00949 µM",93.4%
same,"viability, T/C","second compound 0.316 µM, first compound 0.03 µM",85.2%
same,"viability, T/C","second compound 0.316 µM, first compound 0.0949 µM",81.7%
same,"viability, T/C","second compound 0.316 µM, first compound 0.3 µM",80.7%
same,"viability, T/C","second compound 0.316 µM, first compound 0.949 µM",71.9%
same,"viability, T/C","second compound 0.316 µM, first compound 3 µM",76.8%
same,"viability, T/C","second compound 1 µM, first compound 0.00949 µM",82.1%
same,"viability, T/C","second compound 1 µM, first compound 0.03 µM",87.8%
same,"viability, T/C","second compound 1 µM, first compound 0.0949 µM",88.8%
same,"viability, T/C","second compound 1 µM, first compound 0.3 µM",79.1%
same,"viability, T/C","second compound 1 µM, first compound 0.949 µM",85.7%
same,"viability, T/C","second compound 1 µM, first compound 3 µM",69.5%
same,"viability, T/C","second compound 3.16 µM, first compound 0.00949 µM",72.2%
same,"viability, T/C","second compound 3.16 µM, first compound 0.03 µM",74.9%
same,"viability, T/C","second compound 3.16 µM, first compound 0.0949 µM",72.5%
same,"viability, T/C","second compound 3.16 µM, first compound 0.3 µM",68.2%
same,"viability, T/C","second compound 3.16 µM, first compound 0.949 µM",67.3%
same,"viability, T/C","second compound 3.16 µM, first compound 3 µM",58.8%
same,"viability, T/C","second compound 10 µM, first compound 0.00949 µM",57%
same,"viability, T/C","second compound 10 µM, first compound 0.03 µM",58.2%
same,"viability, T/C","second compound 10 µM, first compound 0.0949 µM",51%
same,"viability, T/C","second compound 10 µM, first compound 0.3 µM",57.4%
same,"viability, T/C","second compound 10 µM, first compound 0.949 µM",53%
same,"viability, T/C","second compound 10 µM, first compound 3 µM",44.8%
CC[C@@]1(O)C(=O)OCc2c1cc1n(c2=O)Cc2cc3c(CN(C)C)c(O)ccc3nc2-1,"viability, T/C",compound 0.000316 µM,110% and 102% and 99.3%
same,"viability, T/C",compound 0.001 µM,103% and 107% and 96.5%
same,"viability, T/C",compound 0.00316 µM,94.2% and 93.7% and 90.6%
same,"viability, T/C",compound 0.01 µM,83.7% and 86.5% and 77.4%
same,"viability, T/C",compound 0.0316 µM,59.3% and 48.2% and 41.8%
same,"viability, T/C",compound 0.1 µM,28.4% and 23.3% and 20.4%
same,IC50,curve of compound,0.0456 µM and 0.0307 µM and 0.0244 µM
Nc1ncn(C2CC(O)C(CO)O2)c(=O)n1 (configuration not stated) + Cc1ccccc1N=Nc1ccc(NC(=O)c2ccnn2C)c(C)c1,IC50,[1],> 1 µM
same,IC50,[2],> 1 µM
same,IC50,[3],> 1 µM
same,IC50,[4],> 1 µM
same,IC50,[5],> 1 µM
same,"viability, T/C","second compound 0.1 µM, first compound 0.00316 µM",90.2%
same,"viability, T/C","second compound 0.1 µM, first compound 0.01 µM",94.2%
same,"viability, T/C","second compound 0.1 µM, first compound 0.0316 µM",101%
same,"viability, T/C","second compound 0.1 µM, first compound 0.1 µM",86%
same,"viability, T/C","second compound 0.1 µM, first compound 0.316 µM",73.5%
same,"viability, T/C","second compound 0.1 µM, first compound 1 µM",72.9%
same,"viability, T/C","second compound 0.316 µM, first compound 0.00316 µM",96.9%
same,"viability, T/C","second compound 0.316 µM, first compound 0.01 µM",86.9%
same,"viability, T/C","second compound 0.316 µM, first compound 0.0316 µM",87%
same,"viability, T/C","second compound 0.316 µM, first compound 0.1 µM",76.5%
same,"viability, T/C","second compound 0.316 µM, first compound 0.316 µM",76%
same,"viability, T/C","second compound 0.316 µM, first compound 1 µM",78.6%
same,"viability, T/C","second compound 1 µM, first compound 0.00316 µM",80.1%
same,"viability, T/C","second compound 1 µM, first compound 0.01 µM",104%
same,"viability, T/C","second compound 1 µM, first compound 0.0316 µM",84.2%
same,"viability, T/C","second compound 1 µM, first compound 0.1 µM",79.6%
same,"viability, T/C","second compound 1 µM, first compound 0.316 µM",77.2%
same,"viability, T/C","second compound 1 µM, first compound 1 µM",72.4%
same,"viability, T/C","second compound 3.16 µM, first compound 0.00316 µM",80.2%
same,"viability, T/C","second compound 3.16 µM, first compound 0.01 µM",82.7%
same,"viability, T/C","second compound 3.16 µM, first compound 0.0316 µM",66.3%
same,"viability, T/C","second compound 3.16 µM, first compound 0.1 µM",72.2%
same,"viability, T/C","second compound 3.16 µM, first compound 0.316 µM",63%
same,"viability, T/C","second compound 3.16 µM, first compound 1 µM",55.6%
same,"viability, T/C","second compound 10 µM, first compound 0.00316 µM",63%
same,"viability, T/C","second compound 10 µM, first compound 0.01 µM",65.3%
same,"viability, T/C","second compound 10 µM, first compound 0.0316 µM",58.7%
same,"viability, T/C","second compound 10 µM, first compound 0.1 µM",61.6%
same,"viability, T/C","second compound 10 µM, first compound 0.316 µM",62.8%
same,"viability, T/C","second compound 10 µM, first compound 1 µM",45%
